Inconclusive results and toxic doses are left out.
Test system: BDF1 mice, P388 leukemia ip, median survival T/C
Assay: NCI In Vivo Anticancer Drug Screen. Data for tumor model P388 Leukemia (intraperitoneal) in B6D2F1 (BDF1) mice
Details: endpoint: median survival time, higher = longer survival
How it was run: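 Read-out is survival of treated animals expressed relative to the vehicle group, as a T/C ratio.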

[1] = dose: 100.0 mg/kg/injection, schedule: Q01DX009 (ip), vehicle: saline with Tween-80
[2] = dose: 100.0 mg/kg/injection, schedule: Q04DX003 (ip), vehicle: saline with Tween-80
[3] = dose: 200.0 mg/kg/injection, schedule: Q04DX003 (ip), vehicle: saline with Tween-80
[4] = dose: 25.0 mg/kg/injection, schedule: Q01DX009 (ip), vehicle: saline with Tween-80

CCOC(=O)/C(C#N)=C/c1ccc(O)c(OC)c1
T/C (dose: 100.0 mg/kg/injection, schedule: Q01DX009 (ip), vehicle: Klucel (hydroxypropylcellulose) (HPC)): 105 % of control | T/C (dose: 100.0 mg/kg/injection, schedule: Q04DX003 (ip), vehicle: Klucel (hydroxypropylcellulose) (HPC)): 95 % of control | T/C (dose: 200.0 mg/kg/injection, schedule: Q01DX009 (ip), vehicle: Klucel (hydroxypropylcellulose) (HPC)): 110 % of control | T/C (dose: 200.0 mg/kg/injection, schedule: Q04DX003 (ip), vehicle: Klucel (hydroxypropylcellulose) (HPC)): 100 % of control | T/C (dose: 400.0 mg/kg/injection, schedule: Q01DX009 (ip), vehicle: Klucel (hydroxypropylcellulose) (HPC)): 95 % of control | T/C (dose: 400.0 mg/kg/injection, schedule: Q04DX003 (ip), vehicle: Klucel (hydroxypropylcellulose) (HPC)): 100 % of control

CC(=O)Nc1ccn(CC(=O)c2ccco2)c(=O)n1
T/C [1]: 104 % of control | T/C [2]: 105 % of control | T/C (dose: 200.0 mg/kg/injection, schedule: Q01DX009 (ip), vehicle: saline with Tween-80): 95 % of control | T/C [3]: 105 % of control | T/C (dose: 400.0 mg/kg/injection, schedule: Q01DX009 (ip), vehicle: saline with Tween-80): 90 % of control | T/C (dose: 400.0 mg/kg/injection, schedule: Q04DX003 (ip), vehicle: saline with Tween-80): 100 % of control

C=CC(=O)NCCCCC(N)C(=O)O (stereo unspecified)
T/C (dose: 12.5 mg/kg/injection, schedule: Q01DX009 (ip), vehicle: saline with Tween-80): 108 % of control | T/C [4]: 106 % of control | T/C (dose: 50.0 mg/kg/injection, schedule: Q01DX009 (ip), vehicle: saline with Tween-80): 113 % of control

CC(C)CCCCCCCCCCCCC(=O)NCC(=O)NC1C(O)C(O)C(Nc2ncnc3nc[nH]c23)OC1C(O)CO (stereo unspecified)
T/C (dose: 0.09 mg/kg/injection, schedule: Q01DX010 (ip), vehicle: carboxymethylcellulose (CMC)): 160 % of control | T/C (dose: 0.13 mg/kg/injection, schedule: Q01DX010 (ip), vehicle: steriod suspending solution): 90 % of control | T/C (dose: 0.18 mg/kg/injection, schedule: Q01DX010 (ip), vehicle: carboxymethylcellulose (CMC)): 180 % of control | T/C (dose: 0.37 mg/kg/injection, schedule: Q01DX010 (ip), vehicle: carboxymethylcellulose (CMC)): 175 % of control | T/C (dose: 0.37 mg/kg/injection, schedule: Q01DX010 (ip), vehicle: steriod suspending solution): 165 % of control

CC(C)=CBr
T/C (dose: 198.0 mg/kg/injection, schedule: Q01DX005 (ip), vehicle: saline): 92 % of control | T/C (dose: 300.0 mg/kg/injection, schedule: Q01DX005 (ip), vehicle: saline): 100 % of control

CCc1cccc2c(NCCCCCCNc3c4ccccc4nc4c(CC)cccc34)c3ccccc3nc12
T/C (dose: 0.31 mg/kg/injection, schedule: Q01DX009 (ip), vehicle: lactic acid): 108 % of control | T/C (dose: 0.62 mg/kg/injection, schedule: Q01DX009 (ip), vehicle: lactic acid): 103 % of control | T/C (dose: 5.0 mg/kg/injection, schedule: Q01DX009 (ip), vehicle: lactic acid): 173 % of control

Cc1ccc(C(=O)Cl)cc1S(=O)(=O)F
T/C [4]: 100 % of control | T/C (dose: 50.0 mg/kg/injection, schedule: Q04DX003 (ip), vehicle: saline with Tween-80): 101 % of control | T/C [1]: 93 % of control | T/C [2]: 109 % of control | T/C [3]: 101 % of control

C[Si](C)(C)O[Si](C)(C)c1ccccc1
T/C (dose: 100.0 mg/kg/injection, schedule: Q01DX001 (ip), vehicle: saline): 104 % of control | T/C (dose: 200.0 mg/kg/injection, schedule: Q01DX001 (ip), vehicle: saline): 95 % of control | T/C (dose: 400.0 mg/kg/injection, schedule: Q01DX001 (ip), vehicle: saline): 95 % of control

NC(=O)c1nnc2cccc(Cl)n12
T/C (dose: 100.0 mg/kg/injection, schedule: Q01DX001 (ip), vehicle: saline with Tween-80): 112 % of control | T/C (dose: 200.0 mg/kg/injection, schedule: Q01DX001 (ip), vehicle: saline with Tween-80): 103 % of control | T/C (dose: 400.0 mg/kg/injection, schedule: Q01DX001 (ip), vehicle: saline with Tween-80): 96 % of control

From PubChem BioAssay AID328 (DTP/NCI, 2004)
